From patent US20250304623A1, “PEPTIDES FOR INTRACELLULAR DELIVERY” (UNIVERSIDADE DE SANTIAGO DE COMPOSTELA, priority 2022, published 2025)
*: point of attachment. NHNH2 = NN*

Key:
Assay type in all cases: cell-based
ARPE19 cells = test: RLuc pDNA delivery, robotic library screening, ARPE19
HCT116 cells = test: EGFP mRNA delivery, robotic library screening, HCT116
Description: Cells were seeded in a 96 well plate the day before the experiment at a concentration of 50,000 cell/mL (100 μL/w) in DMEM+10% FBS+1% Gln-Abt. For robotic library screening, the delivery of EGFP-mRNA (from TriLink, fully substituted with 5-methoxyuridine, capped and polyadenylated; TriLink, CleanCap® EGFP mRNA (5moU), ref. L-7201) in six different cell lines was performed. Amphiphilic molecule stock solutions were prepared in DMSO as described above and diluted in DMEM to afford a range of concentrations. The solutions of EGFP-mRNA/amphiphilic molecule complexes were freshly prepared prior to the transfection experiments. 35 μL of the corresponding amphiphile were added to 10 μL of a solution of EGFP-mRNA at 10 ng/μL in DMEM. The mixture was shaken for 30 min at room temperature before the addition to the cells. The cell medium was aspirated, and cells were washed with PBS twice. Cells were covered with 39 μL of DMEM and 11 μL of the complex's solution were added to the cells and incubated for 4 h (final concentration of peptide=2.5, 5 and 10 μM; final concentration of EGFP-mRNA=25 ng/well). After the incubation, the medium was replaced by 100 μL of fresh DMEM supplemented with 10% FBS. The total EGFP fluorescence was quantified after 72 h in a well plate reader. Amphiphile transfection efficiency was compared and normalized to Lipofectamine® MessengerMax efficiency (value of 1 in Tables 1-5 and 7; double underlined numbers). All experiments were done in triplicate.
(§1) Tables 1-7: RLuc (pDNA) or EGFP (mRNA) expression levels were normalized to Lipofectamine reagents (value=1) and expressed as fold-times signal increase. In the case of siRNA, the siRNA treated cells fluorescence was compared with siMOCK control fluorescence, while Cas9-RNP mediated knockout was measured against the fluorescence of untreated cells. In both siRNA and Cas9-RNP, values are expressed as % fluorescence reduction. Amphiphile concentration was 5 μM in all cases. All experiments were performed in triplicate.
Tables 14-19 show the mean (triplicates) fluorescence intensity measured after the transfection of EGFP mRNA by different amphiphiles at different concentrations in a variety of cell lines. Background fluorescence values, accounted by untreated control cells, were subtracted for processing.

[1] = tested on: Hela cells expressing EGFP; test: Cas9-RNP delivery against EGFP (gene editing, plate reader), HeLa
Description: To generate an EGFP expressing HeLa cell line, HeLa cells were transfected with EGFP pDNA (pEGFP-C1, Clontech) and stable transfectants were selected with 400 μg/mL of G-418 (Millipore). Green clones were selected by epifluorescence microscopy and tested for EGFP expression stability through several passages. […] All other EGFP-expressing cell lines were obtained in a similar way from parent non-EGFP-expressing cell lines.
Cells expressing EGFP were seeded in a 96 well plate the day before the experiment at a concentration of 50,000 cell/mL (100 μL/w) in DMEM+10% FBS+1% Gln-Abt. For robotic library screening, the delivery of Cas9-RNP against EGFP (RNP designed to knock-out the gene encoding for the enhanced green fluorescent protein (EGFP)) was performed. For RNP assembly, 9.2 μL of crRNA and 9.2 μL of tracrRNA were mixed in 211.6 μL of Nuclease-Free Duplex Buffer (IDT), incubated for 5 min at 95° C. and slowly cooled at rt (see I. Lostalé-Seijo, et al. Peptide/Cas9 nanostructures for ribonucleoprotein cell membrane transport and gene edition, Chem. Sci., 2017). Cas9 protein was dissolved in DMEM at a final concentration of 4 μM and equal volumes of the RNA complex and Cas9 were mixed and incubated for 5 min at rt. 75 μL of the corresponding amphiphile concentrations were added to 5 μL of RNP at 2 μM. The mixture was shaken for 30 min at room temperature before the addition to the cells. The cell medium was aspirated, and cells were washed twice with PBS. Cells were covered with 30 μL of DMEM and 20 μL of the RNP/amphiphile complexes were added to the cells (final peptide concentrations=2.5, 5 and 10 μM; final Cas9-RNP concentration=50 nM) and incubated for 4 h. After the incubation, the medium was replaced by 100 μL of fresh DMEM supplemented with 10% FBS. The total EGFP fluorescence was quantified after 72 h in a plate reader (FIG. 2, Table 1 (right) and Table 6). All experiments were done in triplicate.
as §1
Tables 26-31 show the mean (triplicates) percentage of gene editing, accounted by GFP fluorescence intensity decrease (% of reduction), measured after the transfection of Cas9-RNP by different amphiphiles at different concentrations in a variety of cell lines. Background values, accounted by untreated control cells, were subtracted for processing.

| Substance | mean luminescent intensity (RLuc pDNA) (ARPE19 cells; Dodecanal, 5 μM) | mean luminescent intensity (RLuc pDNA) (ARPE19 cells; Dodecanal, 10 μM) | mean luminescent intensity (RLuc pDNA) (ARPE19 cells; Dodecanal, 15 μM) | mean luminescent intensity (RLuc pDNA) (ARPE19 cells; Myristoleyl, 5 μM) | mean luminescent intensity (RLuc pDNA) (ARPE19 cells; Myristoleyl, 10 μM) | mean luminescent intensity (RLuc pDNA) (ARPE19 cells; Myristoleyl, 15 μM) | mean fluorescence intensity (EGFP mRNA) (HCT116 cells; Dodecanal, 2.5 μM) | mean fluorescence intensity (EGFP mRNA) (HCT116 cells; Dodecanal, 5 μM) | mean fluorescence intensity (EGFP mRNA) (HCT116 cells; Dodecanal, 10 μM) | mean fluorescence intensity (EGFP mRNA) (HCT116 cells; Myristoleyl, 2.5 μM) | mean fluorescence intensity (EGFP mRNA) (HCT116 cells; Myristoleyl, 5 μM) | percentage of gene editing, GFP fluorescence intensity decrease (% of reduction) ([1]; Dodecanal, 5 μM, Hela cells) | percentage of gene editing, GFP fluorescence intensity decrease (% of reduction) ([1]; Dodecanal, 10 μM, HeLa cells) | percentage of gene editing, GFP fluorescence intensity decrease (% of reduction) ([1]; Dodecanal, 15 μM, Hela cells) | percentage of gene editing, GFP fluorescence intensity decrease (% of reduction) ([1]; Myristoleyl, 5 μM, HeLa cells) | percentage of gene editing, GFP fluorescence intensity decrease (% of reduction) ([1]; Myristoleyl, 10 μM, HeLa cells) | percentage of gene editing, GFP fluorescence intensity decrease (% of reduction) ([1]; Myristoleyl, 15 μM, Hela cells) | also measured |
| --- | --- | --- | --- | --- | --- | --- | --- | --- | --- | --- | --- | --- | --- | --- | --- | --- | --- | --- |
| Ac-RK*LRK*K*L-NH2 (Ac-RK(NHNH2)LRK(NHNH2)K(NHNH2)L-NH2; not fully specified; printed as Ac-RK*LRK*K*L-NH2; also: K*2,K*5,K*6: native or modified lysine (ε-amide to a linker)) [Peptide 7.3] | 661 RLU | 458 RLU | 558 RLU | −209 RLU | −262 RLU | −315 RLU | 5668 | 6749 | 1139 | 35826 | 2060 | 10% | 2% | −3% | 24% | 27% | 25% | mean luminescent intensity (RLuc pDNA) (ARPE19 cells; Palmitoleyl, 5 μM): 344 RLU; mean luminescent intensity (RLuc pDNA) (ARPE19 cells; Petroselinyl, 5 μM): 22197 RLU; mean luminescent intensity (RLuc pDNA) (ARPE19 cells; Petroselinyl, 10 μM): 31833 RLU; mean luminescent intensity (RLuc pDNA) (ARPE19 cells; Petroselinyl, 15 μM): 7692 RLU; mean fluorescence intensity (EGFP mRNA) (HCT116 cells; Petroselinyl, 2.5 μM): 6670; mean fluorescence intensity (EGFP mRNA) (HCT116 cells; Petroselinyl, 5 μM): 1464; mean fluorescence intensity (EGFP mRNA) (HCT116 cells; Petroselinyl, 10 μM): 1093; percentage of gene editing, GFP fluorescence intensity decrease (% of reduction) ([1]; Oleyl, 10 μM, HeLa cells): −9%; percentage of gene editing, GFP fluorescence intensity decrease (% of reduction) ([1]; Palmitoleyl, 5 μM, HeLa cells): 20%; percentage of gene editing, GFP fluorescence intensity decrease (% of reduction) ([1]; Palmitoleyl, 10 μM, HeLa cells): 13%; percentage of gene editing, GFP fluorescence intensity decrease (% of reduction) ([1]; Petroselinyl, 5 μM, HeLa cells): 6%; percentage of gene editing, GFP fluorescence intensity decrease (% of reduction) ([1]; Petroselinyl, 10 μM, Hela cells): 11%; percentage of gene editing, GFP fluorescence intensity decrease (% of reduction) ([1]; Petroselinyl, 15 μM, Hela cells): 33% |
| Ac-RK*LRRK*L-NH2 (Ac-RK(NHNH2)LRRK(NHNH2)L-NH2; not fully specified; printed as Ac-RK*LRRK*L-NH2; also: K*2,K*6: native or modified lysine (ε-amide to a linker)) [Peptide 7.2] | 567 RLU | 424 RLU | 462 RLU | −485 RLU | −509 RLU | −568 RLU | 613 | 672 | 1077 | 4952 | 1710 | 6% | −22% | −26% | −7% | −18% | −6% |  |
